According to patent US10023563B2, “Cyclic compounds substituted by a condensed ring system” (BASF SE, priority 2014, dated 2018):

Columns and labels:
Assay type in all cases: in vivo
[1] = system: Orchid Thrips (Dichromothrips Corbetti); assay: Orchid thrips floral-immersion test; conditions: dipped orchid petals, adult thrips, 72 hours after treatment, read-out: mortality in comparison with untreated controls
Protocol: B.7 Orchid Thrips (Dichromothrips Corbetti)
Dichromothrips corbetti adults used for bioassay were obtained from a colony maintained continuously under laboratory conditions. For testing purposes, the test compound is diluted in a 1:1 mixture of acetone:water (vol:vol), plus Kinetic HV at a rate of 0.01% v/v.
Thrips potency of each compound was evaluated by using a floral-immersion technique. All petals of individual, intact orchid flowers were dipped into treatment solution and allowed to dry in Petri dishes. Treated petals were placed into individual resealable plastic along with about 20 adult thrips. All test arenas were held under continuous light and a temperature of about 28° C. for duration of the assay. After 3 days, the numbers of live thrips were counted on each petal. The percent mortality was recorded 72 hours after treatment.

[2] = system: Tobacco Budworm (Heliothis virescens); assay: Tobacco budworm insect diet microtiter test; conditions: 120 h, egg and larval mortality on sprayed insect diet, 5 days, read-out: mortality in comparison with untreated controls
Protocol: B.4 Tobacco Budworm (Heliothis virescens)
For evaluating control of tobacco budworm (Heliothis virescens) the test unit consisted of 96-well-microtiter plates containing an insect diet and 15-25 H. virescens eggs.
The compounds were formulated using a solution containing 75% v/v water and 25% v/v DMSO. Different concentrations of formulated compounds were sprayed onto the insect diet at 10 μl, using a custom built micro atomizer, at two replications.
(§1) After application, microtiter plates were incubated at about 28±1° C. and about 80±5% relative humidity for 5 days. Egg and larval mortality was then visually assessed.

[3] = system: Diamond Back Moth (Plutella xylostella); assay: Diamond back moth leaf-dip test; conditions: cabbage leaves dipped, 3rd instar larvae, 72 hours after treatment, read-out: mortality in comparison with untreated controls
Protocol: B.1 Diamond Back Moth (Plutella xylostella)
The active compound was dissolved at the desired concentration in a mixture of 1:1 (vol:vol) distilled water:aceteone. Surfactant (Kinetic HV) was added at a rate of 0.01% (vol/vol). The test solution was prepared at the day of use.
Leaves of cabbage were dipped in test solution and air-dried. Treated leaves were placed in petri dishes lined with moist filter paper and inoculated with ten 3rd instar larvae. Mortality was recorded 72 hours after treatment. Feeding damages were also recorded using a scale of 0-100%.

[4] = system: Rice Green Leafhopper (Nephotettix virescens); assay: Rice green leafhopper sprayed rice seedling test; conditions: sprayed potted rice seedlings, adults, after 72 hours, read-out: mortality in comparison with untreated controls
Protocol: B.8 Rice Green Leafhopper (Nephotettix virescens)
Rice seedlings were cleaned and washed 24 hours before spraying. The active compounds were formulated in 1:1 acetone:water (vol:vol), and 0.01% vol/vol surfactant (Kinetic HV) was added. Potted rice seedlings were sprayed with 5-6 ml test solution, air dried, covered with Mylar cages and inoculated with 10 adults. Treated rice plants were kept at about 28-29° C. and relative humidity of about 50-60%. Percent mortality was recorded after 72 hours.

[5] = system: Boll Weevil (Anthonomus grandis); assay: Boll weevil insect diet microtiter test; conditions: 120 h, egg and larval mortality on sprayed insect diet, 5 days, read-out: mortality in comparison with untreated controls
Protocol: B.5 Boll Weevil (Anthonomus grandis)
For evaluating control of boll weevil (Anthonomus grandis) the test unit consisted of 96-well-microtiter plates containing an insect diet and 5-10 A. grandis eggs.
The compounds were formulated using a solution containing 75% v/v water and 25% v/v DMSO. Different concentrations of formulated compounds were sprayed onto the insect diet at 5 μl, using a custom built micro atomizer, at two replications.
After application, microtiter plates were incubated at about 25±1° C. and about 75±5% relative humidity for 5 days. Egg and larval mortality was then visually assessed.

[6] = system: Southern Armyworm (Spodoptera eridania); assay: Southern armyworm sprayed lima bean test; conditions: foliar, 96 h, sprayed lima bean foliage, larvae, 4 days after treatment, read-out: mortality in comparison with untreated controls
Protocol: B.10 Southern Armyworm (Spodoptera eridania)
The active compounds were formulated in cyclohexanone as a 10,000 ppm solution supplied in tubes. The tubes were inserted into an automated electrostatic sprayer equipped with an atomizing nozzle and they served as stock solutions for which lower dilutions were made in 50% acetone:50% water (v/v). A nonionic surfactant (Kinetic®) was included in the solution at a volume of 0.01% (v/v).
Lima bean plants (variety Sieva) were grown 2 plants to a pot and selected for treatment at the 1st true leaf stage. Test solutions were sprayed onto the foliage by an automated electrostatic plant sprayer equipped with an atomizing spray nozzle. The plants were dried in the sprayer fume hood and then removed from the sprayer. Each pot was placed into perforated plastic bags with a zip closure. About 10 to 11 armyworm larvae were placed into the bag and the bags zipped closed. Test plants were maintained in a growth room at about 25° C. and about 20-40% relative humidity for 4 days, avoiding direct exposure to fluorescent light (24 hour photoperiod) to prevent trapping of heat inside the bags. Mortality and reduced feeding were assessed 4 days after treatment, compared to untreated control plants.

[7] = system: Mediterranean Fruitfly (Ceratitis capitata); assay: Mediterranean fruitfly insect diet microtiter test; conditions: 120 h, egg and larval mortality on sprayed insect diet, 5 days, read-out: mortality in comparison with untreated controls
Protocol: B.6 Mediterranean Fruitfly (Ceratitis capitata)
For evaluating control of Mediterranean fruitfly (Ceratitis capitata) the test unit consisted of microtiter plates containing an insect diet and 50-80 C. capitata eggs. The compounds were formulated using a solution containing 75% v/v water and 25% v/v DMSO. Different concentrations of formulated compounds were sprayed onto the insect diet at 5 μl, using a custom built micro atomizer, at two replications.
as §1

[8] = system: Green Peach Aphid (Myzus persicae); assay: Green peach aphid systemic test on artificial diet; conditions: 72 h, adult aphids on treated artificial diet, 3 days, read-out: mortality in comparison with untreated controls
From the text: B.2 Green Peach Aphid (Myzus persicae)
For evaluating control of green peach aphid (Myzus persicae) through systemic means the test unit consisted of 96-well-microtiter plates containing liquid artificial diet under an artificial membrane.
The compounds were formulated using a solution containing 75% v/v water and 25% v/v DMSO. Different concentrations of formulated compounds were pipetted into the aphid diet, using a custom built pipetter, at two replications.
After application, 5-8 adult aphids were placed on the artificial membrane inside the microtiter plate wells. The aphids were then allowed to suck on the treated aphid diet and incubated at about 23±1° C. and about 50±5% relative humidity for 3 days. Aphid mortality and fecundity was then visually assessed.

[9] = system: Vetch Aphid (Megoura viciae); assay: Vetch aphid broad bean leaf disk test; conditions: foliar, 120 h, sprayed leaf disks, adult aphids, 5 days, read-out: mortality in comparison with untreated controls
Protocol: B.3 Vetch Aphid (Megoura viciae)
For evaluating control of vetch aphid (Megoura viciae) through contact or systemic means the test unit consisted of 24-well-microtiter plates containing broad bean leaf disks.
The compounds were formulated using a solution containing 75% v/v water and 25% v/v DMSO. Different concentrations of formulated compounds were sprayed onto the leaf disks at 2.5 μl, using a custom built micro atomizer, at two replications.
After application, the leaf disks were air-dried and 5-8 adult aphids placed on the leaf disks inside the microtiter plate wells. The aphids were then allowed to suck on the treated leaf disks and incubated at about 23±1° C. and about 50±5% relative humidity for 5 days. Aphid mortality and fecundity was then visually assessed.

O=C(CNC(=O)c1ccc(C2=CSC(c3cc(Cl)cc(Cl)c3)(C(F)(F)F)C2)c2c1CCC2)NCC(F)(F)F (stereo not drawn) [Compound 1-3, 7-[2-(3,5-Dichlorophenyl)-2-(trifluoromethyl)-3H-thiophen-4-yl]-N-[2-oxo-2-(2,2,2-trifluoroethylamino)ethyl]indane-4-carboxamide]
≥ 75%: mortality at 300 ppm [1] | mortality at 2500 ppm [2] | mortality at 300 ppm [3] | mortality at 2500 ppm [4] | mortality at 2500 ppm [5] | mortality at 10 ppm [6] | mortality at 2500 ppm [7] | mortality at 2500 ppm [8] | mortality at 2500 ppm [9]
